Series [1] has as its system greenhouse red spidermite (Tetranychus urticae). In words: Tetranychus test; OP resistant (TETRUR spray treatment), Example 5. In kind it is in vivo. The note with it: foliar, 144 h, spray on bean leaf discs, after 6 days, read-out: effect (100% means that all of the mites have been killed); for pest or weed control at 100 g/ha: application rate 100 g/ha; for pest or weed control at 500 g/ha: application rate 500 g/ha. The protocol: (§1) Solvents: 78.0 parts by weight of acetone • • 1.5 parts by weight of dimethylformamide Emulsifier: 0.5 part by weight of alkylaryl polyglycol ether An appropriate preparation of active compound is prepared by mixing 1 part by weight of active compound with the stated amounts of solvent and emulsifier and diluting the concentrate with emulsifier-containing water to the desired concentration. Leaf discs of bean (Phaseolus vulgaris) infested by all stages of the greenhouse red spidermite (Tetranychus urticae) are sprayed with a preparation of active compound at the desired concentration. After 6 days, the effect in % is determined. Here, 100% means that all of the mites have been killed; 0% means that no mites have been killed.

A short description of series [2]: log P by HPLC/LC-MS on reversed-phase C18, formic acid method [b]. It counts as physicochemical. The note with it: reversed-phase C18 HPLC column; pH 2.7, 0.1% aqueous formic acid and acetonitrile; read-out: logP (HCOOH). How it is done: (§2) The log P values reported in the table above and in the preparation examples were determined in accordance with EEC Directive 79/831 Annex V.A8 by HPLC (High Performance Liquid Chromatography) on reversed-phase columns (C 18), with the following methods: ^[b] The determination is made by LC-MS in the acid range at pH 2.7 with 0.1% aqueous formic acid and acetonitrile (containing 0.1% formic acid) as eluents; linear gradient from 10% acetonitrile to 95% acetonitrile. Calibration took place with unbranched alkan-2-ones (having 3 to 16 carbon atoms) of known log P values (log P values determined from the retention times by linear interpolation between two successive alkanones).

Series [3] concerns Boophilus microplus. As to the kind of experiment: Boophilus microplus test (BOOPMI injection). The note with it: injection into the abdomen, 20 μg/animal, after 7 days. It counts as in vivo. How it is done: Solvent: Dimethyl Sulphoxide An appropriate preparation of active compound is prepared by mixing 10 mg of active compound with 0.5 ml of solvent and diluting the concentrate with solvent to the desired concentration. The solution of active compound is injected into the abdomen (Boophilus microplus) and the animals are transferred into dishes and kept in a controlled atmosphere. The activity is assessed on the basis of deposition of fertile eggs. After 7 days, the effect in % is determined. Here, 100% means that none of the ticks has laid fertile eggs.

Series [4] can be described thus: log P by HPLC on reversed-phase C18, phosphoric acid method [a]. It counts as physicochemical. The note with it: reversed-phase C18 HPLC column; pH 2.3, 0.1% aqueous phosphoric acid and acetonitrile; read-out: logP (H3PO4). The protocol:
as §2, with “^[a]” for “^[b]”, “made” for “made by LC-MS”, “2.3” for “2.7”, “phosphoric” for “formic”, “acetonitrile” for “acetonitrile (containing 0.1% formic acid)”

Series [5] has as its system Boophilus microplus. As to the kind of experiment: Boophilus microplus (dip). In kind it is in vivo. The note with it: application rate 100 ppm, after 7 days. The protocol:
Solvent: Dimethyl Sulphoxide A quantity of 10 mg of active compound is dissolved in 0.5 ml of dimethyl sulphoxide. To prepare a suitable formulation, the active compound solution is diluted with water to the particular desired concentration. This active compound preparation is pipetted into tubes. A quantity of 8-10 ticks is transferred into a further tube with holes. The tube is immersed in the active compound preparation, with all of the ticks being fully wetted. After the liquid has run off, the ticks are transferred to filter discs in plastic dishes and are kept in a conditioned room. The effect is monitored after 7 days on the basis of deposition of fertile eggs. Eggs whose fertility is not externally visible are stored in glass tubes until the larvae hatch, in a controlled-climate box. An activity of 100% means that none of the ticks has laid fertile eggs.

Series [6] concerns green peach aphid (Myzus persicae). In words: Myzus test (MYZUPE spray treatment). In kind it is in vivo. The note with it: spray on Chinese cabbage leaf discs, application rate 500 g/ha, after 6 days. How it is done:
as §1, with “Solvent: 78” for “Solvents: 78.0”, “Chinese cabbage (Brassica pekinensis)” for “bean (Phaseolus vulgaris)”, “green peach aphid (Myzus persicae)” for “greenhouse red spidermite (Tetranychus urticae)”, “aphids” for “mites”

In series [7] the test system is larvae of the mustard beetle (Phaedon cochleariae). In words: Phaedon test (PHAECO spray treatment). It counts as in vivo. The note with it: foliar, spray on Chinese cabbage leaf discs, application rate 500 g/ha, read-out: effect (100% means that all of the beetle larvae have been killed). How it is done:
Solvents: 78.0 parts by weight of acetone • • 1.5 parts by weight of dimethylformamide Emulsifier: 0.5 part by weight of alkylaryl polyglycol ether An appropriate preparation of active compound is prepared by mixing 1 part by weight of active compound with the stated amounts of solvent and emulsifier and diluting the concentrate with emulsifier-containing water to the desired concentration. Leaf discs of Chinese cabbage (Brassica pekinensis) are sprayed with a preparation of active compound at the desired concentration and, after they have dried, are populated with larvae of the mustard beetle (Phaedon cochleariae). After the desired time, the effect in % is determined. Here, 100% means that all of the beetle larvae have been killed; 0% means that no beetle larvae have been killed.

Here are results for 26 molecules from patent US8722717B2, “3-triazolylphenyl-substituted sulphide derivatives as acaricides and insecticides” (Bayer CropScience AG, priority 2009, dated 2014).

Molecules are shown by their SMILES.

For the molecule `Cc1cc(C)c(-n2cnc(C(F)(F)F)n2)cc1SCC(F)F` [I-A-1, 3-(trifluoromethyl)-1-{2,4-dimethyl-5-[(2,2-difluoroethyl)sulphanyl]phenyl}-1H-1,2,4-triazole], in series [1], the pest or weed control at 100 g/ha worked out at 100%. Besides, the chromatographic logP in series [2] came out at 3.74. Also, the “activity (100% means that none of the ticks has laid fertile eggs)” value in the series on Boophilus microplus [3] turned out to be 100%.

Take `Cc1cc(C)c([S+]([O-])CC(F)F)cc1-n1cnc(C(F)(F)F)n1` (stereo not shown) [I-A-2, 3-(trifluoromethyl)-1-{2,4-dimethyl-5-[(2,2-difluoroethyl)sulphinyl]phenyl}-1H-1,2,4-triazole]: the pest or weed control at 100 g/ha in series [1] came to 100%. In series [2], the chromatographic logP worked out at 2.41. The “activity (100% means that none of the ticks has laid fertile eggs)” value in the series on Boophilus microplus [3] came to 100%.

As for `Cc1cc(C)c(-n2cnc(C(F)(F)F)n2)cc1SCC(F)(F)C(F)F` [I-A-3], the pest or weed control at 500 g/ha in series [1] is 100%. Besides, in series [4], the chromatographic logP worked out at 3.98. The “activity (100% means that none of the ticks has laid fertile eggs)” value in the series with Boophilus microplus [3] is on record as 100%; with Boophilus microplus [5], 90%.

`Cc1cc(C)c(-n2cnc(C(F)(F)F)n2)cc1SCC(F)(F)C(F)(F)F` [I-A-4]: in series [1], the pest or weed control at 100 g/ha worked out at 100% and the pest or weed control at 500 g/ha is 100%. Further, the chromatographic logP in series [4] is 4.49. Besides, the “activity (100% means that none of the ticks has laid fertile eggs)” value with Boophilus microplus [3] is on record as 100%. The “activity (100% means that none of the ticks has laid fertile eggs)” value in the series with Boophilus microplus [5] is 90%.

`Cc1cc(C)c([S+]([O-])CC(F)(F)C(F)F)cc1-n1cnc(C(F)(F)F)n1` (stereo not shown) [I-A-5]: the pest or weed control at 500 g/ha in series [1] is 100%. Further, in series [4], the chromatographic logP stood at 2.88. For the same molecule, in the series on Boophilus microplus [3], the “activity (100% means that none of the ticks has laid fertile eggs)” value was determined as 100%. Further, the “activity (100% means that all of the aphids have been killed)” value in series [6] is on record as 90%.

Turning to `Cc1cc(F)c(-n2cnc(C(F)(F)F)n2)cc1SCC(F)F` [I-A-6], the pest or weed control at 100 g/ha in series [1] is 100%. Moreover, in series [2], the chromatographic logP is 3.57. Also, the pest or weed control at 500 g/ha in series [7] was determined as 100%.

Regarding `Cc1cc(C)c([S+]([O-])CCC(F)(F)F)cc1-n1cnc(C(F)(F)F)n1` (stereo not shown) [I-A-7], in series [1], the pest or weed control at 100 g/ha is 90%. The chromatographic logP in series [2] amounted to 2.86.

On to `Cc1cc(C)c([S+]([O-])CC#N)cc1-n1cnc(C(F)(F)F)n1` (stereo not shown) [I-A-8], for which, in series [1], the pest or weed control at 500 g/ha was 100%. The chromatographic logP in series [2] was determined as 2.07.

As for `Cc1cc(C)c(-n2cnc(C(F)(F)F)n2)cc1SCC#N` [I-A-9], the pest or weed control at 100 g/ha in series [1] stood at 100%. Moreover, the chromatographic logP in series [2] amounted to 3.08.

For the molecule `Cc1cc(C)c([S+]([O-])CC(F)(F)C(F)(F)F)cc1-n1cnc(C(F)(F)F)n1` (stereo not shown) [I-A-10], the pest or weed control at 500 g/ha in series [1] came out at 100%. In addition, the chromatographic logP in series [4] came to 3.29.

As to `Cc1cc(Cl)c(-n2cnc(C(F)(F)F)n2)cc1SCC#N` [I-A-12], in series [1], the pest or weed control at 500 g/ha came to 100%. For the same molecule, the chromatographic logP in series [2] was determined as 3.12.

As to `Cc1cc(F)c(-n2cnc(C(F)(F)F)n2)cc1SCC#N` [I-A-13], the pest or weed control at 500 g/ha in series [1] came out at 100%. Further, in series [2], the chromatographic logP stood at 2.93.

With `Cc1cc(Cl)c(-n2cnc(C(F)(F)F)n2)cc1[S+]([O-])CC(F)(F)C(F)(F)F` (stereo not shown) [I-A-14], the pest or weed control at 500 g/ha in series [1] and in series [7] was 100% in each case. Moreover, the chromatographic logP in series [2] stood at 3.4.

Take `Cc1cc(F)c(-n2cnc(C(F)(F)F)n2)cc1[S+]([O-])CC#N` (stereo not shown) [I-A-15]: the pest or weed control at 500 g/ha in series [1] was found to be 100%. Besides, the chromatographic logP in series [2] was determined as 1.99.

Turning to `Cc1cc(Cl)c(-n2cnc(C(F)(F)F)n2)cc1SCC(F)F` [I-A-16], the pest or weed control at 100 g/ha in series [1] was determined as 100%. In series [2], the chromatographic logP stood at 3.75. The pest or weed control at 500 g/ha in series [7] stood at 100%.

For `Cc1cc(Cl)c(-n2cnc(C(F)(F)F)n2)cc1SCC(F)(F)C(F)F` [I-A-17], in series [1], the pest or weed control at 100 g/ha is 100%. In series [2], the chromatographic logP stood at 4.06. Moreover, in series [7], the pest or weed control at 500 g/ha turned out to be 100%.

Regarding `Cc1cc(F)c(-n2cnc(C(F)(F)F)n2)cc1[S+]([O-])CC(F)(F)C(F)F` (stereo not shown) [I-A-18], in series [1], the pest or weed control at 100 g/ha was found to be 100%. In addition, the chromatographic logP in series [2] came to 2.79. For the same molecule, in series [7], the pest or weed control at 500 g/ha was determined as 100%.

As to `Cc1cc(F)c(-n2cnc(C(F)(F)F)n2)cc1[S+]([O-])CC(F)F` (stereo not shown) [I-A-19], in series [1], the pest or weed control at 100 g/ha amounted to 100%. Besides, the chromatographic logP in series [2] is 2.33. For the same molecule, in series [7], the pest or weed control at 500 g/ha came out at 100%.

Consider `Cc1cc(C)c(-n2cnc(C(F)(F)F)n2)cc1SCCC(F)(F)F` [I-A-20], for which the pest or weed control at 100 g/ha in series [1] is 100%. Moreover, the chromatographic logP in series [2] was 4.32. In series [6], the “activity (100% means that all of the aphids have been killed)” value stood at 100%.

Take `Cc1cc(Cl)c(-n2cnc(C(F)(F)F)n2)cc1[S+]([O-])CC(F)F` (stereo not shown) [I-A-21]: the pest or weed control at 500 g/ha in series [1] was determined as 100%. The chromatographic logP in series [2] was 2.54.

On to `Cc1cc(F)c(-n2cnc(C(F)(F)F)n2)cc1SCC(F)(F)C(F)(F)F` [I-A-22], for which the pest or weed control at 100 g/ha in series [1] was determined as 100%. In addition, in series [2], the chromatographic logP was found to be 4.4.

With `Cc1cc(Cl)c(-n2cnc(C(F)(F)F)n2)cc1[S+]([O-])CC(F)(F)C(F)F` (stereo not shown) [I-A-23], the pest or weed control at 500 g/ha in series [1] and in series [7] was 100% each time. Moreover, the chromatographic logP in series [2] was 3.01.

For the molecule `Cc1cc(F)c(-n2cnc(C(F)(F)F)n2)cc1SCC(F)(F)C(F)F` [I-A-24], the pest or weed control at 100 g/ha in series [1] came out at 100%. For the same molecule, the chromatographic logP in series [2] worked out at 3.87. In addition, the pest or weed control at 500 g/ha in series [7] was 100%.

With `Cc1cc(F)c(-n2cnc(C(F)(F)F)n2)cc1[S+]([O-])CC(F)(F)C(F)(F)F` (stereo not shown) [I-A-25], the pest or weed control at 100 g/ha in series [1] was found to be 100%. Also, the chromatographic logP in series [2] came to 3.22. The pest or weed control at 500 g/ha in series [7] stood at 100%.

Take `Cc1cc(Cl)c(-n2cnc(C(F)(F)F)n2)cc1SCC(F)(F)C(F)(F)F` [I-A-26]: the pest or weed control at 100 g/ha in series [1] was found to be 90%. Further, in series [2], the chromatographic logP is 4.57.

Regarding `Cc1ccc(-n2cnc(C(F)(F)F)n2)c(C)c1` [IV-A-1, 3-(Trifluoromethyl)-1-(2,4-dimethylphenyl)-1H-1,2,4-triazole], the chromatographic logP in series [2] was found to be 3.19.
